Results reported in paper PMC8395244, “The Oxoglutarate Binding Site and Regulatory Mechanism Are Conserved in Ammonium Transporter Inhibitors GlnKs from Methanococcales” (International Journal of Molecular Sciences, 2021).

What was measured:
MjGlnK1^woT = target: T1, MjGlnK1^woT (Methanocaldococcus jannaschii, UniProt Q60381); experiment: X-ray crystal structure ([…] Å); assay type: binding; details: co-crystallised with 2 mM ATP, 2 mM 2OG, 2 mM MgCl2; pH 8.5; inter-subunit cleft
T1 construct: gene glnK1; untagged (stop codon before XhoI in pET-24b(+)); codon-optimised gene in E. coli BL21(DE3); circa 12 kDa monomer, trimer; 2J9D/2J9E are earlier structures of this protein (2J9E C-terminally tagged)

MtGlnK2 = target: T2, MtGlnK2 (Methanothermococcus thermolithotrophicus, UniProt Z9RMX6QOV2); experiment: X-ray crystal structure ([…] Å); assay type: binding; details: co-crystallised with 2 mM ATP, 2 mM 2OG, 2 mM MgCl2; pH 6.5; inter-subunit cleft
T2 construct: N-terminal His-tag (pET-28a(+)), tag kept (partially visible); codon-optimised gene in E. coli BL21(DE3); circa 12 kDa monomer, trimer; site between adjacent subunits

T1 sequence (Q60381 whole entry): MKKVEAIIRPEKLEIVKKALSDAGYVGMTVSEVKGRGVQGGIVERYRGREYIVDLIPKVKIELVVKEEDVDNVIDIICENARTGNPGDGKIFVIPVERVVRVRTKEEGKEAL

Compound | X-ray crystal structure (1.20 Å) (MjGlnK1^woT) | X-ray crystal structure (1.16 Å) (MtGlnK2)
Nc1ncnc2c1ncn2[C@@H]1O[C@H](COP(=O)(O)OP(=O)(O)OP(=O)(O)O)[C@@H](O)[C@H]1O [ATP] | MtGlnK2 and MjGlnK1^woT structures, co-crystallized with Mg-ATP and 2OG | MtGlnK2 and MjGlnK1^woT structures, co-crystallized with Mg-ATP and 2OG
O=C(O)CCC(=O)C(=O)O [2OG] | MtGlnK2 and MjGlnK1^woT structures, co-crystallized with Mg-ATP and 2OG | MtGlnK2 and MjGlnK1^woT structures, co-crystallized with Mg-ATP and 2OG
